Legend:
[1] = system: succinic dehydrogenase (SDH); assay: SDH staining (mitochondrial enzyme activity) of extensor digitorum longus muscle; format: in vivo, mouse
Experimental: Staining of succinic dehydrogenase (SDH) in the extensor digitorum longus muscle of a mouse administered with farnesol for 5 weeks is performed. This staining method is a method of analyzing mitochondrial activity by measuring activity of SDH which is an enzyme involved in the electron transport chain of mitochondria. Staining degree represents a content of oxidative muscle fiber. Frozen tissue sections are reacted in 0.2 M phosphate buffer (pH 7.4) containing […] sodium succinate and nitro blue tetrazolium (NBT) at 37° C. for 60 minutes, washed with distilled water, and then sealed, followed by observation. Further, farnesol is administered to mice in the same manner as in Section 4 of Example 2, except that 22-month-old mice are used instead of 5-month-old mice and administration is performed for 4 months instead of 5 weeks, and activity of a mitochondrial enzyme according to farnesol administration is analyzed in the extensor digitorum longus muscles of old mice.

[2] = LC-MS/MS of farnesol and metabolite FPP in extensor digitorum longus muscle; format: in vivo; settings: mouse orally administered with farnesol 5 weeks
Experimental: The amount of intracellular farnesol or metabolite thereof is measured in the extensor digitorum longus muscle of a mouse administered with farnesol for 5 weeks.
Sample pretreatment for quantitative analysis of farnesol in the mouse extensor digitorum longus muscle is performed by extraction using saturated KOH/ethanol and fractionation using Tris-HCl buffer and n-hexane: ethanol (Journal of Pharmaceutical and Biomedical Analysis 47(2008) 560-566) and an n-hexane layer is obtained and dried, followed by LC-MS/MS (ACQUITY UPLC System and ACQUITY TQD mass spectrometry, Waters). […] The concentration of farnesol is determined by a ratio of a peak area of farnesol to a peak area of 1-tetradecanol used as an internal standard, they are added to the sample in an equal amount.
Sample pretreatment for quantitative analysis of a farnesol metabolite, farnesylpyrophosphate (FPP) in the mouse extensor digitorum longus muscle is performed by extraction using 2-propanol: 100 mM NH4HCO3, pH 7.8 (1:1 v/v) and protein precipitation using acetonitrile (Anal. Biochem. 383 (2008) 18-24), and a supernatant is obtained and dried, followed by LC-MS/MS (ACQUITY UPLC System and ACQUITY TQD mass spectrometry, Waters). […] The concentration of FPP is determined by a peak area.

[3] = system: fibrosis-related genes Col1 A1, Col A3, TGF-β, Timp2; assay: qRT-PCR of fibrosis-related genes in extensor digitorum longus muscles; format: in vivo, mouse; settings: 22-month-old mice, farnesol diet 4 months
Experimental: In muscle aging, fibrosis is closely related to a reduction in regenerative capacity and a reduction in quality of muscle. 22-month-old female mice (weighing 30 g) are fed with a control diet or a farnesol-containing diet for 4 months. Other feeding conditions are the same as described in Section 2 of Example 1. Thereafter, expressions of fibrosis-related genes, collagen 1 A1 (Col1 A1), collagen A3(Col A3), TGF-β, and Timp2 in extensor digitorum longus muscles are analyzed by qRT-PCR (quantitative Real Time-polymerase chain reaction) (primer sets of SEQ ID NOS: 1 and 2, 3 and 4, 5 and 6, 7 and 8 are used).

AMPK and p38 MAPK = assay: Immunoblot of pAMPK and pp38 in farnesol-treated C2C12 myoblasts; format: cell-based; settings: 0.1 μM farnesol, 48 hours
Experimental: The C2C12 myoblasts are cultured in DMEM containing 2% horse serum and 0.1 μM farnesol dissolved in DMSO for 48 hours. A control group is cultured in the same manner as above, except that only DMSO is added. Other culture conditions and immunoblot procedure are the same as those described in Section 1 of Example 2. PGC-1α, pAMPK, pp38 and basal forms thereof are subjected to immunoblotting.

SDH enzyme activity = assay: SDH staining of hind limb muscles, high fat diet model; format: in vivo, mouse; settings: high fat diet with 0.5% compound, 3 months
Source text: (§1) To prepare the PGC-1α-inhibited model, 3-month-old mouse (female, body weight of 20 g) is fed with high fat diet, in which fat is increased to 60%, compared to a negative control group, for 5 days (short-term effect) or 3 months (long-term effect). The negative control group is fed with a general diet. Farnesol is mixed in the high fat diet at a content of 0.5% (weight of farnesol/weight of diet). A positive control group is fed with high fat diet containing a type II diabetes drug, metformin at a content of 0.5% (weight of metformin/weight of diet). Mice are fed with the general diet, the high fat diet, and the high fat diet containing farnesol or metformin for 3 months, and then hind limbs are removed to analyze muscle differentiation and mitochondrial enzyme activity.

PARIS, PGC-1α = assay: Immunoprecipitation for PGC-1α expression and PARIS-farnesylation, short-term high fat diet; format: in vivo, mouse; settings: high fat diet with 0.5% compound, 5 days, gastrocnemius muscles
Source text: as §1
The effects of high fat diet and farnesol and metformin on PGC-1α induction by PARIS-farnesylation are evaluated. To analyze effect of short-term high fat diet, mice are fed with the above conditions for 5 days. Immunoblotting of PGC-1α and PARIS in gastrocnemius muscles of the mice is performed.
In this regard, PARIS-farnesylation is normalized to the immunoprecipitated PARIS expression level.

In the case of CC(C)=CCC/C(C)=C/CC/C(C)=C/CO [farnesol, (2E,6E)-3,7,11-trimethyldodeca-2,6,10-trien-1-ol], the “percentage of the area stained dark (SDH activity) in EDL” value ([1]; 5-month-old mice, farnesol 5 weeks) is reported as “remarkably increased”, the “percentage of the area stained dark (SDH activity) in EDL” value ([1]; 22-month-old mice, farnesol 4 months) is reported as “remarkably increased” and the “amount of farnesol in EDL muscle relative to control” value [2] is reported as no less than 1.3 times. The “expressions of fibrosis-related genes in EDL” value [3] was “remarkably reduced”, the pAMPK level (AMPK and p38 MAPK) was “does not affect” and the pp38 level (AMPK and p38 MAPK) was “does not affect”. For the same molecule, the “percentage of muscle fibers showing increased SDH enzyme activity” value (SDH enzyme activity) was “increased”, the “reduction in PARIS-farnesylation by high fat diet” value (PARIS, PGC-1α) was “inhibited” and the “reduction in PGC-1α expression by high fat diet” value (PARIS, PGC-1α) was “inhibited”.

— patent US10780061B2, “Composition comprising farnesol and use thereof” (Daegu Gyongbuk Institute of Science and Technology, priority 2014, dated 2020)
